Conditions: not given

Row | Compound | boiling point [°C] | log10 vapour pressure (mmHg) | melting point [°C] | ready biodegradability | log10 Henry constant (atm·m³/mol) | log10 Koa | log10 Koc (L/kg) | log10 biodegradation half-life (days)
1 | ClC(Cl)(Cl)Br | 105 | 1.59 | -5.7 |  |  |  |  | 
2 | ClC(Cl)=CBr | 108 |  | -88.5 |  |  |  |  | 
3 | Brc1cnc2ccccc2c1 | 275 |  | 13.3 |  |  |  |  | 
4 | CCCCCCCCCCCCCCCCCC(=O)Oc1ccccc1 |  |  | 52 |  |  |  |  | 
5 | C=C(C)CC(C)O (configuration not stated) | 129 |  |  |  |  |  |  | 
6 | O=[N+]([O-])c1ccc(S(=O)(=O)O)cc1 |  |  |  | not readily biodegradable |  |  |  | 
7 | CCc1ccccc1 | 136 | 0.982 | -94.9 |  | -2.1 | 3.74 | 2.23 | 0.903
8 | O=C(Nc1ccc(Cl)cc1)c1cc(Br)ccc1O |  |  | 240 |  |  |  |  | 
9 | CCCC(=O)C(=O)CCC | 168 |  |  |  |  |  |  | 
10 | CC(=O)[O-].[Na+] |  |  | 324 |  |  |  |  | 
11 | Clc1ccc(Oc2ccc(Cl)cc2)cc1 | 313 | -3.3 | 30 |  |  |  |  | 
12 | CCCOC=O | 80.9 | 1.92 | -92.9 |  |  | 2.66 |  | 
13 | CCOC(=O)COC | 142 |  |  |  |  |  |  | 
14 | CC(C)COCOCC(C)C | 166 |  |  |  |  |  |  | 
15 | CC[C@H](C)CC=O | 121 |  |  |  |  |  |  | 
16 | CCc1ccc(C)cc1 | 162 | 0.477 | -62.3 |  |  |  |  | 0.602
17 | CC(NNC(=O)c1ccccc1)c1ccccc1 (configuration not stated) |  |  | 93.5 |  |  |  |  | 
18 | CC(C)=CCl | 68 |  |  |  |  |  |  | 
19 | CCC#CC(C)C | 95.2 |  | -117 |  |  |  |  | 
20 | C1CCC(CCCCC2CCCCC2)CC1 | 305 |  | 12 |  |  |  |  | 
21 | C=CCCCCCCCCCCC=C |  |  |  |  |  |  |  | 1.11

Row | Compound | boiling point [°C] | log10 vapour pressure (mmHg) | melting point [°C] | ready biodegradability | log10 Henry constant (atm·m³/mol) | log10 Koa | log10 Koc (L/kg) | log10 biodegradation half-life (days)
22 | O=C1OC2(c3ccccc31)c1ccc(O)c(Br)c1Oc1c2ccc(O)c1Br |  |  | 285 |  |  |  |  | 
23 | Clc1cc(Cl)c2oc3c(Cl)c(Cl)ccc3c2c1 |  | -7.48 | 164 |  |  |  |  | 
24 | CCCCCCCCCCCCCCCCCCC1CCCCC1 | 409 |  | 41.6 |  |  |  |  | 
25 | CCOC(=O)C(C(C)=O)C(=O)OCC | 232 |  |  |  |  |  |  | 
26 | CN(C)CCOCCN(C)C |  |  |  | not readily biodegradable |  |  |  | 
27 | CCC(C)(C)CC(C)(C)C | 154 |  |  |  |  |  |  | 
28 | CC(=O)c1ccc(O)cc1 |  |  | 110 | readily biodegradable |  |  |  | 
29 | CC(=O)O[C@@H](C(=O)O)c1ccccc1 |  |  | 97 |  |  |  |  | 
30 | FC(Br)C(F)(F)F (configuration not stated) | 8.6 |  | -80 |  | -1.24 |  |  | 
31 | O=Cc1ccc(O)cc1O |  |  | 135 |  |  |  |  | 
32 | O=CNNC=O |  | -6.13 | 156 |  |  |  |  | 
33 | O[C@@H]1CC[C@H](O)C1 |  |  | 35.5 |  |  |  |  | 
34 | CN1C(CCl)Nc2cc(Cl)c(S(N)(=O)=O)cc2S1(=O)=O (configuration not stated) |  |  | 225 |  |  |  |  | 
35 | C=CCNc1ccccc1 | 219 |  |  |  |  |  |  | 
36 | CC1(C)OC(=O)NC1=O |  |  | 76.5 |  |  |  |  | 
37 | CCCCCCCCCCCCCCCCCC(N)=O |  |  | 109 |  |  |  |  | 
38 | CCCCCCCC#N | 205 | -0.409 | -45.6 |  |  |  |  | 
39 | CCc1cccc(C)c1N(COC(C)C)C(=O)CCl |  | -4.52 | 21.6 |  |  |  |  | 
40 | CCCCc1cccs1 | 182 |  |  |  |  |  |  | 
41 | Cl[C@H]1[C@H](Cl)[C@@H](Cl)[C@@H](Cl)[C@H](Cl)[C@H]1Cl (racemic) |  |  |  |  | -5.5 | 8.29 | 3.17 | 
42 | CC(O)[C@H]1CC[C@H]2[C@@H]3CC[C@@H]4C[C@@H](O)CC[C@]4(C)[C@H]3CC[C@]12C (some centres not stated) |  |  | 244 |  |  |  |  | 

Row | Compound | boiling point [°C] | log10 vapour pressure (mmHg) | melting point [°C] | ready biodegradability | log10 Henry constant (atm·m³/mol) | log10 Koa | log10 Koc (L/kg) | log10 biodegradation half-life (days)
43 | C[C@@H]1C=Cc2ccccc21 | 199 |  |  |  |  |  |  | 
44 | c1ccc(Nc2ccc3ccccc3c2)cc1 | 396 |  | 108 | not readily biodegradable |  |  |  | 
45 | CC=C1CC2C=CC1C2 (configuration not stated) | 146 |  |  | not readily biodegradable |  |  |  | 
46 | Nc1ncn([C@@H]2O[C@H](CO)[C@@H](O)[C@H]2O)c(=O)n1 |  |  | 229 |  |  |  |  | 
47 | Cc1ccc2cnccc2c1 | 266 |  | 85.5 |  |  |  |  | 
48 | Cc1c2ccccc2c(C)c2ccccc12 |  |  | 183 |  |  |  |  | 
49 | CNC(C)CCC=C(C)C (configuration not stated) | 177 |  |  |  |  |  |  | 
50 | Nc1ccc(Cl)cc1N | 229 |  | 76 |  |  |  |  | 
51 | O=c1ccc2cc(Cl)ccc2o1 |  |  | 165 |  |  |  |  | 
52 | O=CNC(O)C(Cl)(Cl)Cl (configuration not stated) |  |  | 120 |  |  |  |  | 
53 | CCc1cccc2c1CCCC2 | 245 |  | -44.5 |  |  |  |  | 
54 | CCOC(=O)CCl | 144 | 0.687 | -21 |  |  |  |  | 
55 | O=C(O)c1ccc(O)c(O)c1 |  |  |  | readily biodegradable |  |  |  | 
56 | CCOC(=O)C(CC)(CC)C(=O)OCC | 230 |  |  |  |  |  |  | 
57 | Clc1ccccc1C1CO1 (configuration not stated) |  |  |  | not readily biodegradable |  |  |  | 
58 | NCCCCCC(=O)O |  |  | 205 |  |  |  |  | 
59 | CCCC(C)(CC)CCC | 161 |  |  |  |  |  |  | 
60 | Nc1ccc2ccccc2c1N |  |  | 98.5 |  |  |  |  | 
61 | C=CC(Cl)CCl (configuration not stated) | 116 | 1.34 | -61 | not readily biodegradable |  |  |  | 
62 | CC1=CC(=O)OC1=O | 214 |  | 7.5 |  |  |  |  | 

Same assay, conditions: fish

Row | Compound | log10 BCF | log10 biotransformation half-life (days)
63 | Nc1nc(N)nc(N)n1 | 0.58 | 
64 | CCOP(=S)(OCC)Oc1cc(C)nc(C(C)C)n1 | 1.85 | 0.07
65 | CCCCCCC1CCCCC1 |  | 0.7
66 | Cc1cc2cccc(CCCC(C)C)c2cc1C |  | 0.06
67 | Cl[C@H]1[C@H](Cl)[C@@H](Cl)[C@@H](Cl)[C@H](Cl)[C@H]1Cl (racemic) | 3.04 | 
68 | c1ccc(Nc2ccc3ccccc3c2)cc1 | 2.37 | -0.41
69 | CC=C1CC2C=CC1C2 (configuration not stated) | 2.04 | -0.56
70 | C=CC(Cl)CCl (configuration not stated) | 1.11 | -1.28

Source: the OPERA property sets (Mansouri et al. 2018)
